Measured values published in publication PMC4457528, “Identification of Novel Small Molecule Inhibitors of Oncogenic RET Kinase” (PLoS ONE, 2015).
Like-named read-outs stand apart in the source and are kept apart here. One block for each molecule: values may come before it.

Key:
KinomeScan kinase panel [1] = target: T1, KinomeScan kinase panel (Homo sapiens, UniProt Q9Y2U5); assay: KinomeScan kinase panel, single concentration 10 µM; assay type: binding; settings: MAP3K2, 10 µM; read-out: score (%)
T1 construct: purchased DiscoveRx (KinomeScan)

KinomeScan kinase panel [2] = target: T2, KinomeScan kinase panel (Homo sapiens, UniProt P08581, Y1235D); assay: as above; assay type: binding; settings: MET(Y1235D), 10 µM
T2 construct: purchased DiscoveRx (KinomeScan)

KinomeScan kinase panel [3] = target: T3, KinomeScan kinase panel (Homo sapiens, UniProt O75747); assay: as above; assay type: binding; settings: PIK3C2G, 10 µM; read-out: score (%)
T3 construct: purchased DiscoveRx (KinomeScan)

KinomeScan kinase panel [4] = target: T4, KinomeScan kinase panel (Homo sapiens, UniProt Q15208); assay: as above; assay type: binding; settings: NDR1, 10 µM; read-out: score (%)
T4 construct: purchased DiscoveRx (KinomeScan)

KinomeScan kinase panel [5] = target: T5, KinomeScan kinase panel (Homo sapiens, UniProt O75460); assay: as above; assay type: binding; settings: ERN1, 10 µM; read-out: score (%)
T5 construct: purchased DiscoveRx (KinomeScan)

KinomeScan kinase panel [6] = target: T6, KinomeScan kinase panel (Homo sapiens, UniProt P42336, E542K); assay: as above; assay type: binding; settings: PIK3CA(E542K), 10 µM; read-out: score (%)
T6 construct: purchased DiscoveRx (KinomeScan)

KinomeScan kinase panel [7] = target: T7, KinomeScan kinase panel (Homo sapiens, UniProt O15197); assay: as above; assay type: binding; settings: EPHB6, 10 µM; read-out: score (%)
T7 construct: purchased DiscoveRx (KinomeScan)

KinomeScan kinase panel [8] = target: T8, KinomeScan kinase panel (Homo sapiens, UniProt O95747); assay: as above; assay type: binding; settings: OSR1, 10 µM; read-out: score (%)
T8 construct: purchased DiscoveRx (KinomeScan)

KinomeScan kinase panel [9] = target: T9, KinomeScan kinase panel (Homo sapiens, UniProt Q9Y2K2); assay: as above; assay type: binding; settings: 10 µM
T9 construct: purchased DiscoveRx (KinomeScan)

KinomeScan kinase panel [10] = target: T10, KinomeScan kinase panel (Homo sapiens, UniProt P42679); assay: as above; assay type: binding; settings: CTK, 10 µM; read-out: score (%)
T10 construct: purchased DiscoveRx (KinomeScan)

KinomeScan kinase panel [11] = target: T11, KinomeScan kinase panel (Homo sapiens, UniProt P42336, H1047Y); assay: as above; assay type: binding; settings: PIK3CA(H1047Y), 10 µM; read-out: score (%)
T11 construct: purchased DiscoveRx (KinomeScan)

KinomeScan kinase panel [12] = target: T12, KinomeScan kinase panel (Homo sapiens, UniProt Q13627); assay: as above; assay type: binding; settings: DYRK1A, 10 µM; read-out: score (%)
T12 construct: purchased DiscoveRx (KinomeScan)

KinomeScan kinase panel [13] = target: T13, KinomeScan kinase panel (Homo sapiens, UniProt Q8WTQ7); assay: as above; assay type: binding; settings: GRK7, 10 µM; read-out: score (%)
T13 construct: purchased DiscoveRx (KinomeScan)

KinomeScan kinase panel [14] = target: T14, KinomeScan kinase panel (Homo sapiens, UniProt Q9H2X6); assay: as above; assay type: binding; settings: HIPK2, 10 µM; read-out: score (%)
T14 construct: purchased DiscoveRx (KinomeScan)

KinomeScan kinase panel [15] = target: T15, KinomeScan kinase panel (Homo sapiens, UniProt Q13523); assay: as above; assay type: binding; settings: read-out: score (%)
T15 construct: purchased DiscoveRx (KinomeScan)

KinomeScan kinase panel [16] = target: T16, KinomeScan kinase panel (Homo sapiens, UniProt P32298); assay: as above; assay type: binding; settings: GRK4, 10 µM; read-out: score (%)
T16 construct: purchased DiscoveRx (KinomeScan)

KinomeScan kinase panel [17] = target: T17, KinomeScan kinase panel (Homo sapiens, UniProt P42336, C420R); assay: as above; assay type: binding; settings: PIK3CA(C420R), 10 µM; read-out: score (%)
T17 construct: purchased DiscoveRx (KinomeScan)

KinomeScan kinase panel [18] = target: T18, KinomeScan kinase panel (Homo sapiens, UniProt Q9UPZ9); assay: as above; assay type: binding; settings: ICK, 10 µM; read-out: score (%)
T18 construct: purchased DiscoveRx (KinomeScan)

[19] = tested on: SHC and MAPK phosphorylation in parental RAT1 cells; assay: Western blot of SHC and MAPK phosphorylation in parental RAT1 cells; assay type: cell-based, rat; settings: 2 hr
Method: (§1) Protein lysates were prepared according to standard procedures. Briefly, cells were lysed in a buffer containing 50 mM N-2-hydroxyethylpiperazine-N'-2-ethanesulfonic acid (HEPES; pH 7.5), 1% (vol/vol) Triton X-100, 150 mM NaCl, 5 mM EGTA, 50 mM NaF, 20 mM sodium pyrophosphate, 1 mM sodium vanadate, 2 mM phenylmethylsulphonyl fluoride (PMSF) and 1 μg/ml aprotinin. Lysates were clarified by centrifugation at 10,000 Xg for 15 min. […] Immune complexes were detected with the enhanced chemiluminescence kit (Amersham Pharmacia Biotech, Little Chalfort, UK). Signal intensity was analyzed at the Phosphorimager (Typhoon 8600, Amersham Pharmacia Biotech) interfaced with the ImageQuant software. Anti-phospho-SHC (#07206), that recognizes SHC proteins when phosphorylated on Y317 was from Merck Millipore (Darmstadt, Germany). Anti-MAPK (#4695) and anti-phospho-MAPK (#4370), specific for p44/42MAPK (ERK1/2) phosphorylated on Thr202/Tyr204, anti-VEGFRII (#2479) and anti-phospho-VEGFRII (#2478), that recognizes VEGF Receptor 2 when phosphorylated on Y1175, were from Cell Signaling (Beverly, MA).
Anti-SHC (#H-108) was from Santa Cruz Biotechnology (Santa Cruz, CA). Anti-RET is a polyclonal antibody raised against the tyrosine kinase protein fragment of human RET [28]. Anti-phospho905 is a phospho-specific polyclonal antibody recognizing RET proteins phosphorylated at Y905 and anti-phospho1062 is a phospho-specific polyclonal antibody recognizing RET proteins phosphorylated at Y1062 [13]. Secondary antibodies coupled to horseradish peroxidase were from Santa Cruz Biotechnology.
EC: extracellular domain; IC: intracellular domain; TM: transmembrane domain.

RET/M918T = RET/M918T (Homo sapiens, UniProt P07949, M918T); assay: cell-based; settings: NIH3T3, read-out: inhibition of RET/M918T protein
VEGFRII = target: T19, VEGFRII (Homo sapiens, UniProt P35968); assay: Western blot of VEGFRII phosphorylation in TT cells; assay type: cell-based; settings: 2 hr, Western blotting
T19 construct: endogenous in cells; host or cells: TT human medullary thyroid carcinoma cells
Method: as §1
VEGFRII inhibition is believed to contribute, based on its anti-angiogenic effect, to clinical activity of approved RET inhibitors such as vandetanib and cabozantinib.
The blots were normalized using anti-VEGFRII (αVEGFRII) antibody. (JPG) Click here for additional data file.

RAT RET/M918T cells = assay: Growth curves, RAT1 cells transformed by RET/M918T; assay type: cell-based; settings: low serum, last day values, 95% CI in brackets, read-out: Growth inhibition IC50 dose: RAT RET/M918T
Method: (§2) To compare cell growth, we performed unpaired Student’s t test using the Instat software program (Graphpad Software Inc). P values were two-sided, and differences were considered statistically significant at P <.02. IC50 doses were calculated through a curve fitting analysis from last day values using the PRISM software program (Graphpad Software Inc).

RAT1 cells = assay: Growth curves, parental RAT1 cells; assay type: cell-based, rat; settings: low serum
Method: as §2

Sequence of RET/M918T (P07949 29-1072 isoform P07949-2 M918T limits assumed): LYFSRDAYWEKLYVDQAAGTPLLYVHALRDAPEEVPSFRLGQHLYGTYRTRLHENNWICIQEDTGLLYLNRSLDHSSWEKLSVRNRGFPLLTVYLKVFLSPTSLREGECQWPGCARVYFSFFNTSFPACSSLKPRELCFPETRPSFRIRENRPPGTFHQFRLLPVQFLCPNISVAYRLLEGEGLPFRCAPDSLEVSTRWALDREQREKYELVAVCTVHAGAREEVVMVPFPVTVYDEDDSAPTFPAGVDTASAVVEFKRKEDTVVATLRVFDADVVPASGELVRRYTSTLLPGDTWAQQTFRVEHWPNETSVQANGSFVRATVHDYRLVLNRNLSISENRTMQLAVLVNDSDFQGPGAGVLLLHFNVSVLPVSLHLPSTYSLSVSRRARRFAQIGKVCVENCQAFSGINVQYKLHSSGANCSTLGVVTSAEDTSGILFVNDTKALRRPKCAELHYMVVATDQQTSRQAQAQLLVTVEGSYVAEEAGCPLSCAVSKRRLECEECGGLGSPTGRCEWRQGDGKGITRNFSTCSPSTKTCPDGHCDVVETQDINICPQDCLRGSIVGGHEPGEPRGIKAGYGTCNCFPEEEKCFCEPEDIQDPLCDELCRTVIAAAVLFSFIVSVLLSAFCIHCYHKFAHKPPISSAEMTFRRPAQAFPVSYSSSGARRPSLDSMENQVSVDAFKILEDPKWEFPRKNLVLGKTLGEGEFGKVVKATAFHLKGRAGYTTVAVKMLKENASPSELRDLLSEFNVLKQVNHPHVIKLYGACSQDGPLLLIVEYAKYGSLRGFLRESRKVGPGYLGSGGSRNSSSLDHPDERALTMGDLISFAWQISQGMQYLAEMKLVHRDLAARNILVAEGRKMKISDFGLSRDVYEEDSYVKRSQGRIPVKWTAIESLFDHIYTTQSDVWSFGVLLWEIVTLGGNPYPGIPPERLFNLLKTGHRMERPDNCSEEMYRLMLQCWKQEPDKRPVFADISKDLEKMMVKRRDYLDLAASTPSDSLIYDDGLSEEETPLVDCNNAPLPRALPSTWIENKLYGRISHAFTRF
T19 sequence (P35968 20-1356): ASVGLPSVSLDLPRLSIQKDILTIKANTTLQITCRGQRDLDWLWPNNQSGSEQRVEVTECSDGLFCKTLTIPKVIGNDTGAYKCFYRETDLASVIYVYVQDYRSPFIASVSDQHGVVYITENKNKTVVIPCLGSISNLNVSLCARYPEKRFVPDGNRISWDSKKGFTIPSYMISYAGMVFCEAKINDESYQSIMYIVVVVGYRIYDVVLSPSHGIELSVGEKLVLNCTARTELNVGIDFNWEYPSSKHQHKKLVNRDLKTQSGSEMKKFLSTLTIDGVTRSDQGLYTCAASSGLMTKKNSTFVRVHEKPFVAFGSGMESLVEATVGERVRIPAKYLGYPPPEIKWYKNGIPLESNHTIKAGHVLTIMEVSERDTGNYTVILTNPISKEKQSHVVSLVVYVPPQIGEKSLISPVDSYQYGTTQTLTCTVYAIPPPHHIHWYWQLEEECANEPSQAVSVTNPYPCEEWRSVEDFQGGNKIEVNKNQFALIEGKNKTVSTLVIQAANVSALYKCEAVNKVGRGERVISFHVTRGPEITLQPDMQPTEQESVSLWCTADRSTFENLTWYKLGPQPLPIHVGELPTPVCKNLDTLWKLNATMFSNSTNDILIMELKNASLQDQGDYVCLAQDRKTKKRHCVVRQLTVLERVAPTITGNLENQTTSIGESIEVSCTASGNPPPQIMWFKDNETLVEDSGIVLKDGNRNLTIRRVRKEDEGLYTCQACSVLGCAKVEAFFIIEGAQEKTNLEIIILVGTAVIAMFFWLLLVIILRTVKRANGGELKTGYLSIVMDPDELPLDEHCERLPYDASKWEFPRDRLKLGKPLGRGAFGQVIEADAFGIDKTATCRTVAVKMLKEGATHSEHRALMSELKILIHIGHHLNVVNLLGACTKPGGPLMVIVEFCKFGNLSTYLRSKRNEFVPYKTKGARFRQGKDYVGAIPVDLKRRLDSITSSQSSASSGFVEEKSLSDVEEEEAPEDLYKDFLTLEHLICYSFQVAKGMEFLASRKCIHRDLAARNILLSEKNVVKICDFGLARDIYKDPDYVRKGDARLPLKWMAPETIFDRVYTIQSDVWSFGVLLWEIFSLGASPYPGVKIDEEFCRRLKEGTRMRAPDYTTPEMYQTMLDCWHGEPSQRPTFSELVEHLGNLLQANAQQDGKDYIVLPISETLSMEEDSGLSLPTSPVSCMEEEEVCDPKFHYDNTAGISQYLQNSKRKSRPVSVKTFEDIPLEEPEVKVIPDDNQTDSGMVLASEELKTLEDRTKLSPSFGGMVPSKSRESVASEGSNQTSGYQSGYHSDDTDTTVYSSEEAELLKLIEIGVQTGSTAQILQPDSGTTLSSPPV
T15 sequence (Q13523 whole entry): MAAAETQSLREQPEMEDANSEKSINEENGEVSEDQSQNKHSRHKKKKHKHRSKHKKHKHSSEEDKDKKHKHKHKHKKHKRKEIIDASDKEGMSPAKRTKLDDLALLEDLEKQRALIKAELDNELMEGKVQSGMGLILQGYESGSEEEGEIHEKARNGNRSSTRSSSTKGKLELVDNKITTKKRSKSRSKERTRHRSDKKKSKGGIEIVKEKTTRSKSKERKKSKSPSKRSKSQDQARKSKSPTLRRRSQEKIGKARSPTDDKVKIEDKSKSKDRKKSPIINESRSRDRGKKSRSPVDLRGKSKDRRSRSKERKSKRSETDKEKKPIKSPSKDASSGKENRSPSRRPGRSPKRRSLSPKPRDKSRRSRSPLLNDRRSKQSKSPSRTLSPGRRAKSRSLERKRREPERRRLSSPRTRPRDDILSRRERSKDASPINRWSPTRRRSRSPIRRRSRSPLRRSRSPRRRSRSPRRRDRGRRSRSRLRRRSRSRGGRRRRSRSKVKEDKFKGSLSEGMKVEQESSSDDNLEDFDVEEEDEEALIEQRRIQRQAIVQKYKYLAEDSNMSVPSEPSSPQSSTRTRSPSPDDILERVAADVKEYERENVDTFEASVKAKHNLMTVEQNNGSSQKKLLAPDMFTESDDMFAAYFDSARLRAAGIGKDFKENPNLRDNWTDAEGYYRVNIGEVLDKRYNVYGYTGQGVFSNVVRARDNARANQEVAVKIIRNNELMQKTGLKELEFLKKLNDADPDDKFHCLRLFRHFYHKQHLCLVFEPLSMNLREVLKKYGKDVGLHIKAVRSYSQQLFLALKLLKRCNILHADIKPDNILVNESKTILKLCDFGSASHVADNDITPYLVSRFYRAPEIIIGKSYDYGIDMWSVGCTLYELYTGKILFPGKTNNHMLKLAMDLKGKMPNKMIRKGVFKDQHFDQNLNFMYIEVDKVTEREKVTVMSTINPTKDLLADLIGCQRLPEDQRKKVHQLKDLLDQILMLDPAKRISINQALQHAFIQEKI
T11 sequence (P42336 whole entry H1047Y): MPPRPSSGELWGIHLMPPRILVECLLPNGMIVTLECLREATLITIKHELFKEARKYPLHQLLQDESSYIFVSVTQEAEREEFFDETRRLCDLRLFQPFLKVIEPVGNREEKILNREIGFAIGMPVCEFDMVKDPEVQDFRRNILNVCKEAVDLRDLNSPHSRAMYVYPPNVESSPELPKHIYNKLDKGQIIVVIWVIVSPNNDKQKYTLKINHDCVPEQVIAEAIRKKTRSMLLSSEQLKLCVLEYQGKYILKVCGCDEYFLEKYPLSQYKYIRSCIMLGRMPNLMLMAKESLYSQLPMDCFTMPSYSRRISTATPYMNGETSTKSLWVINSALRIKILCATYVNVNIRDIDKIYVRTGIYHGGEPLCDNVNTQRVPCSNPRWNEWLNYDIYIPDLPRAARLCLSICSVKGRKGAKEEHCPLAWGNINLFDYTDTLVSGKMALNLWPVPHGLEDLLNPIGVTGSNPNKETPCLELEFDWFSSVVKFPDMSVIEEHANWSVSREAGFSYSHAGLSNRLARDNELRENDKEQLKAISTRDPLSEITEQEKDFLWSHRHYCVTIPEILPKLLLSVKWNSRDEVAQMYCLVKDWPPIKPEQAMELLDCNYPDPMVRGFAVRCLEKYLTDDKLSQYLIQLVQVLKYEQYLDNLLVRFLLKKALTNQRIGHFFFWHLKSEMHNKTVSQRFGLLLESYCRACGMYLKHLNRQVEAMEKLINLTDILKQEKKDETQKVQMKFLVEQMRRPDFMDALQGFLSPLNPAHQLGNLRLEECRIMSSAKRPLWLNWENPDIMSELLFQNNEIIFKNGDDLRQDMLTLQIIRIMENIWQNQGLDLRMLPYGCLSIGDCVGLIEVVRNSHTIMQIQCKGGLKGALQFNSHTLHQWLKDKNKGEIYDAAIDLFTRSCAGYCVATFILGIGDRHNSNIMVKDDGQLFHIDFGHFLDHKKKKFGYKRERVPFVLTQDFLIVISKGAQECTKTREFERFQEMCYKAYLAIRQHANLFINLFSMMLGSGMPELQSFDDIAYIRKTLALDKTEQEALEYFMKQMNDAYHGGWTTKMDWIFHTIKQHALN
T13 sequence (Q8WTQ7 whole entry): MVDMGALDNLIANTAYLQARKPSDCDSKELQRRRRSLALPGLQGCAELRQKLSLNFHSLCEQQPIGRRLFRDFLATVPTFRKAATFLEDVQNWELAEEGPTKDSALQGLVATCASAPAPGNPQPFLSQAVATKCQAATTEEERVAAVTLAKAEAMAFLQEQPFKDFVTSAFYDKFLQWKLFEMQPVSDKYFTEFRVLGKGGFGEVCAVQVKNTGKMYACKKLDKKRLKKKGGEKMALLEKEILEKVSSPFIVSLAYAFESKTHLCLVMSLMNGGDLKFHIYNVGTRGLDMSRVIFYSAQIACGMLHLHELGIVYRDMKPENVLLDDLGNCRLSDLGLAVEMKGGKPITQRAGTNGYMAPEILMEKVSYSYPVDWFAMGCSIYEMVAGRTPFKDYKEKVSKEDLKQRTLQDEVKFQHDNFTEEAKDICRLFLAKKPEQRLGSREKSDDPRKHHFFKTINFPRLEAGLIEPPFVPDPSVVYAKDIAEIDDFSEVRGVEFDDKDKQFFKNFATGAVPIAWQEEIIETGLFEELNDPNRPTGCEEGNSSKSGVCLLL
T17 sequence (P42336 whole entry C420R): as the sequence (P42336 whole entry H1047Y) above, with C420R, Y1047H counted along it
T6 sequence (P42336 whole entry E542K): as the sequence (P42336 whole entry H1047Y) above, with E542K, Y1047H counted along it

SMILES: CCN1CCN(Cc2ccc(NC(=O)c3ccc(C)c(NC(=O)c4cncc(-c5cccs5)c4)c3)cc2C(F)(F)F)CC1 [ALW-II-41-27]
remaining binding at 10 µM (KinomeScan kinase panel [1]): 3.8%
score (%) (KinomeScan kinase panel [2]): nb (Hits values higher than 30% were considered negative (no binding: nb))
remaining binding at 10 µM (KinomeScan kinase panel [3]): > 30%
remaining binding at 10 µM (KinomeScan kinase panel [4]): > 30%
remaining binding at 10 µM (KinomeScan kinase panel [5]): 1.4%
remaining binding at 10 µM (KinomeScan kinase panel [6]): > 30%
remaining binding at 10 µM (KinomeScan kinase panel [7]): 1.2%
remaining binding at 10 µM (KinomeScan kinase panel [8]): > 30%
score (%) (KinomeScan kinase panel [9]; QSK): nb (Hits values higher than 30% were considered negative (no binding: nb))
remaining binding at 10 µM (KinomeScan kinase panel [10]): > 30%
remaining binding at 10 µM (KinomeScan kinase panel [11]): > 30%
remaining binding at 10 µM (KinomeScan kinase panel [12]): 0.15%
remaining binding at 10 µM (KinomeScan kinase panel [13]): 16%
remaining binding at 10 µM (KinomeScan kinase panel [14]): > 30%
remaining binding at 10 µM (KinomeScan kinase panel [15]; PRP4, 10 µM): > 30%
remaining binding at 10 µM (KinomeScan kinase panel [16]): > 30%
remaining binding at 10 µM (KinomeScan kinase panel [17]): > 30%
remaining binding at 10 µM (KinomeScan kinase panel [18]): > 30%
effect on SHC and MAPK phosphorylation in parental RAT1 cells [19]: did not affect
inhibition at 0.01 µM (RET/M918T): > 30%
inhibition of VEGFRII phosphorylation in living TT cells (VEGFRII): able to inhibit
IC50 (RAT RET/M918T cells): 56 nM
Growth inhibition IC50 dose: RAT1 (RAT1 cells): Not measurable

inhibition at 0.01 µM (RET/M918T): > 30%
inhibition of VEGFRII phosphorylation in living TT cells (VEGFRII): able to inhibit
SMILES: CCN1CCN(Cc2ccc(NC(=O)c3ccc(C)c(/C=C/c4cnc5[nH]ccc5c4Cl)c3)cc2C(F)(F)F)CC1 [HG-6-63-01, (E)-3-(2-(4-chloro-1H-pyrrolo[2,3-b]pyridin-5-yl)vinyl)-N-(4-((4-ethylpiperazin-1-yl)methyl)-3-(trifluoromethyl)phenyl)-4-methylbenzamide]
effect on SHC and MAPK phosphorylation in parental RAT1 cells [19]: did not affect
IC50 (RAT RET/M918T cells): 16 nM
Growth inhibition IC50 dose: RAT1 (RAT1 cells): Not measurable

SMILES: CCN1CCN(Cc2ccc(NC(=O)c3ccc(C)c(C#Cc4cccnc4)c3)cc2C(F)(F)F)CC1 [XMD15-44]
remaining binding at 10 µM (KinomeScan kinase panel [1]): 0.15%
score (%) (KinomeScan kinase panel [2]): nb (Hits values higher than 30% were considered negative (no binding: nb))
remaining binding at 10 µM (KinomeScan kinase panel [3]): 100%
remaining binding at 10 µM (KinomeScan kinase panel [4]): 4%
remaining binding at 10 µM (KinomeScan kinase panel [5]): > 30%
remaining binding at 10 µM (KinomeScan kinase panel [6]): 100%
remaining binding at 10 µM (KinomeScan kinase panel [7]): 8.8%
remaining binding at 10 µM (KinomeScan kinase panel [8]): 48%
score (%) (KinomeScan kinase panel [9]; kinase QSK): 70%
remaining binding at 10 µM (KinomeScan kinase panel [10]): > 30%
remaining binding at 10 µM (KinomeScan kinase panel [11]): 81%
remaining binding at 10 µM (KinomeScan kinase panel [12]): > 30%
remaining binding at 10 µM (KinomeScan kinase panel [13]): > 30%
remaining binding at 10 µM (KinomeScan kinase panel [14]): > 30%
remaining binding at 10 µM (KinomeScan kinase panel [15]; kinase PRP4, 10 µM): 54%
remaining binding at 10 µM (KinomeScan kinase panel [16]): > 30%
remaining binding at 10 µM (KinomeScan kinase panel [17]): 72%
remaining binding at 10 µM (KinomeScan kinase panel [18]): > 30%
effect on SHC and MAPK phosphorylation in parental RAT1 cells [19]: did not affect
inhibition at 0.01 µM (RET/M918T): > 30%
inhibition of VEGFRII phosphorylation in living TT cells (VEGFRII): able to inhibit
IC50 (RAT RET/M918T cells): 8.3 nM
Growth inhibition IC50 dose: RAT1 (RAT1 cells): Not measurable
